Consider 1 molecule from patent publication US11813350B2, “Composition for the treatment of rosacea and/or telangiectasia” (NAOS INSTITUTE OF LIFE SCIENCE, priority 2020, dated 2023).

For this assay, the system named is KLK-5. Description: Inhibition of the synthesis of KLK-5 secreted by normal human keratinocytes in an environment mimicking rosacea (IL-17 + Vit. D induction, ELISA on supernatants, normalized to MTT cell viability). In kind it is cell-based. Conditions: Keratinocyte, NHK, 48 hours, induced with IL-17 10 ng/ml + Vit. D 10-7 mol/L, 1 mM calcium, positive control. The procedure:
NHKs originating from LONZA (France) were used in this study.
The culture conditions are as follows: • Cell type: NHK donor PP12 • Culture medium: KBM+Lonza supplements=KGM • Seeding density: 15,000 cells/well in 96-well plates with 100 μl of medium.
The conditions for induction of the synthesis of KLK-5 are as follows: • Presence of 1 mM of calcium • Inducer mix: (see Table 1) IL-17 at 10 ng/ml+Vit. D at 10-7 mol/L • Processing time: 48 hours • Positive control of induced KLK5 inhibition: Dexamethasone at 1 μM
The quantification of KLK-5 in the supernatants is carried out using an Enzyme Linked Immunosorbent Assay (ELISA) (Ref: DY8459-05, R&D Systems, France) with the reagents recommended by the manufacturer (DuoSet Ancillary Reagent Kit 2, Ref: DY008, R&D Systems, France) and used according to the manufacturer's instructions.
The optical density (OD) is read with a spectrophotometer at 450 nm. The concentration of KLK-5 is calculated from the standard range (15.6 to 1000 pg/ml) established with the recombinant human protein of KLK-5.
A dilution of the supernatants to 1/50th is mandatory so that the samples are not out of range. […]
MTT is a soluble yellow dye which is metabolized by mitochondrial enzymes (succinate dehydrogenase) into a dark blue compound: formazan. The formazan crystals are then dissolved in DMSO then the optical density is measured spectrophotometrically at 540 nm. […]
For orientation: An ELISA detects its analyte on a solid surface through an enzyme-linked reagent.

The term inhibition denotes the change of the read-out against control, counted positive when it falls. For `C[C@@H]1C[C@H]2[C@@H]3CCC4=CC(=O)C=C[C@]4(C)[C@@]3(F)[C@@H](O)C[C@]2(C)[C@@]1(O)C(=O)CO` [dexamethasone], the inhibition at 1 µM is 16.6%.
